# Assay results reported in patent US5824698A, “Antibacterial dibenzimidazole derivatives” (priority 1994, dated 1998).
# Structures can show the parent of a compound that is named as a salt. Where two headings read alike, the source gives them in different places.
# Legend:
# Type in all cases: cell-based
# [1] = system: E. coli 1527 E; assay: Antibacterial activity in vitro (MIC, standard agar method); conditions: Escherichia coli, read-out: Minimum inhibitory concentration (MIC)
# Experimental: (§1) The minimum inhibitory concentration (MIC) of the substances investigated against gram-positive and gram-negative strains was determined using standard agar methods. The compounds were dissolved in a small amount of dimethyl sulphoxide, diluted with water and incorporated into liquified DST agar at 50° C. The thus-produced agar plates were used immediately thereafter in the test. The test concentrations lay between 128 and 0.06 μg/ml. The bacterial inoculation solutions were prepared from pre-cultures grown overnight, diluted and applied to the agar surface using an inoculation device (Denley A400). The plates were incubated at 35° C. for 20 hours. The MIC was determined as the lowest concentration of substance which prevented a visible growth. A scarcely visible turbidity and the growth of less than 5 colonies were ignored. The determinations of the antibacterial activities (Tab. 1) were carried out not only for the free bases, but also for the hydrochloride salt of each compound. The same values were obtained within experimental error.
# [2] = system: E. coli K12 KEA-12 (GyrA); assay: as above; conditions: Escherichia coli, 20 h, read-out: Minimum inhibitory concentration (MIC)
# Experimental: as §1
# [3] = system: P. aeroguinosa 3351; assay: as above; conditions: read-out: Minimum inhibitory concentration (MIC)
# Experimental: as §1
# [4] = system: E. coli 159 R; assay: as above; conditions: Escherichia coli, read-out: Minimum inhibitory concentration (MIC)
# Experimental: as §1
# [5] = system: S. marcescens; assay: as above; conditions: Serratia marcescens, read-out: Minimum inhibitory concentration (MIC)
# Experimental: as §1
# [6] = system: P. aeruginosa 799/61; assay: as above; conditions: Pseudomonas aeruginosa, read-out: Minimum inhibitory concentration (MIC)
# Experimental: as §1
# [7] = system: E. cloacae P 99; assay: as above; conditions: Enterobacter cloacae, P99, 20 h, read-out: Minimum inhibitory concentration (MIC)
# Experimental: as §1
# [8] = system: E. coli B; assay: as above; conditions: Escherichia coli, DST agar, 35° C., 20 hours, read-out: Minimum inhibitory concentration (MIC)
# Experimental: as §1
# [9] = system: E. faecalis 6; assay: as above; conditions: read-out: Minimum inhibitory concentration (MIC)
# Experimental: as §1
# [10] = system: Staph. aureus 887; assay: as above; conditions: Staphylococcus aureus, DST agar, 35° C., 20 hours, read-out: Minimum inhibitory concentration (MIC)
# Experimental: as §1
# [11] = system: S. aureus 101; assay: as above; conditions: Staphylococcus aureus, DST agar, 35° C., 20 hours, read-out: Minimum inhibitory concentration (MIC)
# Experimental: as §1
# [12] = system: Staph. aureus 25923; assay: as above; conditions: Staphylococcus aureus, DST agar, 35° C., 20 hours, read-out: Minimum inhibitory concentration (MIC)
# Experimental: as §1
# [13] = system: E. coli H560; assay: as above; conditions: Escherichia coli, read-out: Minimum inhibitory concentration (MIC)
# Experimental: as §1
# [14] = system: E. coli DC2; assay: as above; conditions: Escherichia coli; E. coli DC2; DST agar, 35° C., 20 hours; read-out: Minimum inhibitory concentration (MIC)
# Experimental: as §1
# [15] = system: E. coli AS-19; assay: as above; conditions: Escherichia coli, AS19, DST agar, 35° C., 20 hours, read-out: Minimum inhibitory concentration (MIC)
# Experimental: as §1
# [16] = system: S. haemolyticus 91; assay: as above; conditions: Staphylococcus haemolyticus, DST agar, 35° C., 20 hours, read-out: Minimum inhibitory concentration (MIC)
# Experimental: as §1
# [17] = system: Staph. haemolyticus 75; assay: as above; conditions: Staphylococcus haemolyticus, DST agar, 35° C., 20 hours, read-out: Minimum inhibitory concentration (MIC)
# Experimental: as §1
# [18] = system: S. aureus 853; assay: as above; conditions: Staphylococcus aureus, DST agar, 35° C., 20 hours, read-out: Minimum inhibitory concentration (MIC)
# Experimental: as §1
# [19] = system: E. coli 1346; assay: as above; conditions: Escherichia coli, DST agar, 35° C., 20 hours, read-out: Minimum inhibitory concentration (MIC)
# Experimental: as §1
# [20] = system: P. aeroginosa BA; assay: as above; conditions: DST agar, 35° C., 20 hours, read-out: Minimum inhibitory concentration (MIC)
# Experimental: as §1
# [21] = system: E. coli 25922; assay: as above; conditions: read-out: Minimum inhibitory concentration (MIC)
# Experimental: as §1
# [22] = system: K. oxytoca 1082E; assay: as above; conditions: Klebsiella oxytoca, DST agar, 35° C., 20 hours, read-out: Minimum inhibitory concentration (MIC)
# Experimental: as §1
# [23] = system: Helicobacter pylori PH 81; assay: Antibacterial activity against Helicobacter pylori in vitro (MIC, agar method); conditions: PH81, H. pylori PH 81, Muller-Hinton agar, 5% sheep blood, incubation 7 days, read-out: Minimum inhibitory concentration (MIC)
# Experimental: as §1
# (§2) The antibacterial activities against Helicobacter pylori were carried out analogously to the method described above with the following variations: The compounds were incorporated into Muller-Hinton agar containing 5% sheep blood additive. The test concentrations lay between 10 and 0.1 μg/ml. […]
# [24] = system: Helicobacter pylori K 1585; assay: as above; conditions: K1585, H. pylori K 1585, Muller-Hinton agar, 5% sheep blood, incubation 4 days, read-out: Minimum inhibitory concentration (MIC)
# Experimental: as §1, §2
# [25] = system: B. subtilis ATCC 585369; assay: Antibacterial activity in vitro (MIC, standard agar method); conditions: Bacillus subtilis, ATCC585369, DST agar, 35° C., 20 hours, read-out: Minimum inhibitory concentration (MIC)
# Experimental: as §1
# [26] = E. coli 159 R, DST agar, 35° C., 20 hours
# [27] = Enterococcus faecalis, E. faecalis 6, DST agar, 35° C., 20 hours
# [28] = Escherichia coli, E. coli 25922, DST agar, 35° C., 20 hours
smiles,measurement,setting,value
"Oc1ccc(-c2nc3ccc(-c4ccc5nc(-c6ccc(O)c(F)c6)[nH]c5c4)cc3[nH]2)cc1F [Example 1, 2-Fluoro-4-[2'-(3-fluoro-4-hydroxy-phenyl)-6,6'-dibenzimidazol-2-yl]-phenol]",MIC,"[1]; E. coli 1527 E, DST agar, 35° C., 20 hours",> 64 µg/mL
same,MIC,[2],> 64 µg/mL
same,MIC,"[3]; P. aeroguinosa 3351, DST agar, 35° C., 20 hours",> 64 µg/mL
same,MIC,[4]; [26],8 µg/mL
same,MIC,"[5]; S. marcescens, DST agar, 35° C., 20 hours",> 64 µg/mL
same,MIC,"[6]; P. aeruginosa 799/61, DST agar, 35° C., 20 hours",> 64 µg/mL
same,MIC,[7],> 64 µg/mL
same,MIC,[8],> 64 µg/mL
same,MIC,[9]; [27],2 µg/mL
same,MIC,[10],16 µg/mL
same,MIC,[11],8 µg/mL
same,MIC,[12],8 µg/mL
same,MIC,"[13]; E. coli H560, DST agar, 35° C., 20 hours",8 µg/mL
same,MIC,[14],> 64 µg/mL
same,MIC,[15],> 64 µg/mL
same,MIC,[16],8 µg/mL
same,MIC,[17],0.25 µg/mL
same,MIC,[18],16 µg/mL
same,MIC,[19],32 µg/mL
Cc1cc(-c2nc3ccc(-c4ccc5nc(-c6ccc(O)c(C)c6)[nH]c5c4)cc3[nH]2)ccc1O [Example 2],MIC,[20],> 128 µg/mL
same,MIC,[2],> 128 µg/mL
same,MIC,[3]; 20 h,> 128 µg/mL
same,MIC,"[4]; 159R, 20 h",> 128 µg/mL
same,MIC,"[6]; 799/61, 20 h",> 128 µg/mL
same,MIC,[7],> 128 µg/mL
same,MIC,[8],0.5 µg/mL
same,MIC,"[21]; Escherichia coli, 25922, 20 h",128 µg/mL
same,MIC,[9]; [27],≤ 0.25 µg/mL
same,MIC,[10],≤ 0.25 µg/mL
same,MIC,[22],> 128 µg/mL
same,MIC,[11],0.5 µg/mL
same,MIC,[12],≤ 0.25 µg/mL
same,MIC,"[13]; H560, 20 h",> 128 µg/mL
same,MIC,[14],4 µg/mL
same,MIC,[15],4 µg/mL
same,MIC,[17],≤ 0.25 µg/mL
same,MIC,[18],≤ 0.25 µg/mL
same,MIC,[19],2 µg/mL
same,MIC,[23],< 0.1 µg/mL
same,MIC,[24],1 µg/mL
"Oc1ccc(-c2nc3ccc(-c4ccc5nc(-c6ccc(O)cc6)[nH]c5c4)cc3[nH]2)cc1 [Example 5, 4-[2'-(4-Hydroxy-phenyl)-6,6'-dibenzimidazol-2-yl)-phenol hydrochloride]",MIC,[20],> 128 µg/mL
same,MIC,"[1]; 1527E, 20 h",> 128 µg/mL
same,MIC,[2],> 128 µg/mL
same,MIC,[3]; 20 h,> 128 µg/mL
same,MIC,[4]; [26],> 4 µg/mL
same,MIC,[5]; 20 h,> 128 µg/mL
same,MIC,"[6]; 799/61, 20 h",> 128 µg/mL
same,MIC,[7],> 128 µg/mL
same,MIC,[8],≤ 0.12 µg/mL
same,MIC,[21]; [28],> 128 µg/mL
same,MIC,"[9]; Enterococcus faecalis, 6, 20 h",≤ 0.06 µg/mL
same,MIC,[25],≤ 0.12 µg/mL
same,MIC,[10],≤ 0.12 µg/mL
same,MIC,[22],> 128 µg/mL
same,MIC,[11],> 32 µg/mL
same,MIC,[12],≤ 0.12 µg/mL
same,MIC,"[13]; H560, 20 h",> 128 µg/mL
same,MIC,[14],≤ 0.12 µg/mL
same,MIC,[15],0.25 µg/mL
same,MIC,[16],0.12 µg/mL
same,MIC,[17],≤ 0.06 µg/mL
same,MIC,[18],0.25 µg/mL
same,MIC,[19],≤ 0.12 µg/mL
same,MIC,[23],< 0.1 µg/mL
same,MIC,[24],1 µg/mL
"CCOc1ccc(-c2nc3ccc(-c4ccc5nc(-c6ccc(O)cc6)[nH]c5c4)cc3[nH]2)cc1 [Example 11, 4-[2'-(4-Ethoxy-phenyl)-6,6'-dibenzimidazol-2-yl]-phenol]",MIC,[20],> 128 µg/mL
same,MIC,[2],> 128 µg/mL
same,MIC,[3]; 20 h,> 128 µg/mL
same,MIC,"[4]; 159R, 20 h",> 128 µg/mL
same,MIC,"[6]; 799/61, 20 h",> 128 µg/mL
same,MIC,[7],> 128 µg/mL
same,MIC,[8],0.5 µg/mL
same,MIC,[21]; [28],> 128 µg/mL
same,MIC,[9]; [27],0.5 µg/mL
same,MIC,[25],0.25 µg/mL
same,MIC,[10],0.25 µg/mL
same,MIC,[22],> 128 µg/mL
same,MIC,[11],0.5 µg/mL
same,MIC,[12],0.25 µg/mL
same,MIC,"[13]; H560, 20 h",> 128 µg/mL
same,MIC,[14],1 µg/mL
same,MIC,[15],0.5 µg/mL
same,MIC,[17],0.12 µg/mL
same,MIC,[18],0.25 µg/mL
same,MIC,[19],0.25 µg/mL
same,MIC,[23],< 0.1 µg/mL
same,MIC,[24],1 µg/mL
"N#Cc1ccc(-c2nc3ccc(-c4ccc5nc(-c6ccc(O)cc6)[nH]c5c4)cc3[nH]2)cc1 [Example 12, 4-[2'-(4-Hydroxy-phenyl)-6,6'-dibenzimidazol-2-yl]-benzonitrile]",MIC,[20],> 128 µg/mL
same,MIC,[2],> 128 µg/mL
same,MIC,[3]; 20 h,> 128 µg/mL
same,MIC,"[4]; 159R, 20 h",> 128 µg/mL
same,MIC,"[6]; 799/61, 20 h",> 128 µg/mL
same,MIC,[7],> 128 µg/mL
same,MIC,[8],2 µg/mL
same,MIC,[21]; [28],> 128 µg/mL
same,MIC,[9]; [27],4 µg/mL
same,MIC,[25],2 µg/mL
same,MIC,[10],2 µg/mL
same,MIC,[22],> 128 µg/mL
same,MIC,[11],4 µg/mL
same,MIC,[12],1 µg/mL
same,MIC,"[13]; H560, 20 h",> 128 µg/mL
same,MIC,[14],8 µg/mL
same,MIC,[15],32 µg/mL
same,MIC,[17],0.25 µg/mL
same,MIC,[18],2 µg/mL
same,MIC,[19],1 µg/mL
